According to publication PMC11204760, “New Cyclic Pentapeptides from the Mangrove-Derived Aspergillus fumigatus GXIMD 03099” (Marine Drugs, 2024):
In brackets after ≈: the same amount, converted by molar mass. Where a SMILES comes first, the peptide text is derived from it. [ ]: non-standard residue; d: D form. dNMeF = CN[C@H](Cc1ccccc1)C(=O)O; Pip = O=C(O)[C@@H]1CCCCN1; 2Abz = Nc1ccccc1C(=O)O; Abu = CC[C@H](N)C(=O)O

How the values were obtained:
[1] = system: newly hatched larvae of Culex quinquefasciatus; test: Insecticidal activity against newly hatched Culex quinquefasciatus larvae; format: in vivo; settings: 25 ± 1 °C, 80% relative humidity, dead larvae recorded on 2nd, 4th, 6th and 8th days, two sets of replicates, azadirachtin positive control
Protocol: The insecticidal activity against Culex quinquefasciatus larvae was evaluated according to methods reported in the literature. Newly hatched larvae were housed at 25 ± 1 °C and 80% relative humidity. Two sets of replicates were set up with dimethyl sulfoxide as a negative control, azadirachtin as a positive control, and artificial feed as a blank control. The number of dead larvae was recorded on 2nd, 4th, 6th, and 8th days after treatment.

[2] = system: Vibrio harveyi (ATCC 14126); format: cell-based; settings: V. harveyi ATCC 14126, microplate assay; chloromycetin positive control
Protocol: Antibacterial activity was determined against nine pathogenic bacteria, including six Gram-positive bacteria—Methicillin-resistant Staphylococcus aureus (ATCC 43300), […], Staphylococcus albus (ATCC 8799), Staphylococcus aureus (ATCC 6538), Bacillus subtilis (ATCC 21332), and […] —and three Gram-negative bacteria—Vibrio parahaemolyticus (ATCC 17802), V. alginolyticus (ATCC 17749), and V. harveyi (ATCC 14126)—by the microplate assay method. Chloromycetin was used as the positive control.

[3] = cited from earlier work
Source text: (§1) Cyclic pentapeptides, a subclass of cyclic peptides, are usually constructed by five amino acid residues. To date, about 60 cyclic pentapeptides have been characterized. Among them, avellanins A–C were exclusively found in Hamigera avellanea, Hamigera ingelheimensis, and Aspergillus petrakii, respectively. […] During our continuing efforts to identify new bioactive metabolites from mangrove-derived fungi [[20],[21],[ ...

[4] = system: quorum-sensing; settings: cited from earlier work
Source text: as §1

CC[C@H](C)[C@@H]1NC(=O)[C@@H](C)NC(=O)[C@@H](Cc2ccccc2)N(C)C(=O)[C@@H]2CCCCN2C(=O)c2ccccc2NC1=O [compound 2, avellanin E] (cyclo([Pip][dNMeF][dA]I[2Abz]))
LC50, insecticidal activity [1]: 86.6 µM

CC[C@@H]1NC(=O)[C@@H](C)NC(=O)[C@@H](Cc2ccccc2)N(C)C(=O)[C@@H]2CCCN2C(=O)c2ccccc2NC1=O [compound 4, avellanin G] (cyclo(P[dNMeF][dA][Abu][2Abz]))
MIC [2]: 5.85 µM (≈ 3.12 µg/mL)

L-Pro-Ant-L-Ile-D-Ala-N-Me-D-Phe (head to tail) [compound 5, avellanin A, known cyclic pentapeptide isolated from the fungus]
effect on blood pressure [3]: elevates blood pressure

avellanin B [compound 6]
effect on activity of antineoplastic drugs [3]: improves the activity of antineoplastic drugs

avellanin C
quorum-sensing inhibitory activity [4]: exhibits quorum-sensing inhibitory activity
